Laboratory results: patent publication US20210227868A1, “Formula with specific beta-lactoglobulin peptides” (N.V. Nutricia, priority 2018, published 2021)

Assays:
Assay in all cases: T-cell proliferation assay (stimulation index)
Type in all cases: cell-based, human
TCL A = conditions: SI>=2 positive
Procedure: (§1) Synthetic peptides were obtained from JPT technologies. Only peptides containing at least 9 AAs were taken into account, as this is the minimal size for binding to MHC class II molecules and subsequent T-cell recognition (Holland et al, Front Immunol 2013 Jul 1; 4:172.) Synthetic peptides (JPT technologies) identical to the peptides identified in all batches of the HP of example 1 were dissolved in dimethylsulfoxide (Sigma Aldrich) at a concentration of 5.3 mM. The peptides were tested on cow's milk-specific T-cell lines (TCLs) from three different donors. The peptides were tested on cow's milk protein-specific T-cell lines (TCLs) from three infant donors, diagnosed with cow's milk protein allergy. […] Proliferation was determined as described previously (Ruiter et al, Clin Exp Allergy 2006, 36(3):303-310). Stimulation indexes (Sls, ratio between proliferation of allergen/peptide-stimulated and non-stimulated T cells) were calculated and a SI≥2 was considered positive.
(§2) To confirm that the peptides identified in HP were recognized by T cells, synthetic peptides identical to these identified peptides were tested on cow's milk-specific human TCLs. As there was a considered overlap between the identified peptides, five peptides were tested (Table 7) that were identified in all batches and differed with more than 9A from each other. All tested peptides were able to induce proliferation (FIG. 2). […] This was also seen with the in silico prediction data (data not shown). […] As peptide LIV . . . […] SLL (AA #1-32) did, the region containing AA #28-32 (DISLL) was essential for the response of TCL A. Unexpectedly, TCL C recognized peptide LIV . . . AAS (AA #1-27), while the longer peptide containing the same sequence with 5 additional AAs, LIV . . .

TCL C = conditions: SI>=2 positive
Procedure: as §1, §2

[1] = tested on: cow's milk-specific T-cell lines (TCLs); conditions: TCLs of three cow's milk allergic donors; SI>=2 positive
Procedure: as §1, §2

Row | Sequence | T-cell proliferation (TCL A) | T-cell proliferation (TCL C) | T-cell proliferation / reactivity [1]
1 | LIVTQTMKGLDIQKVAGTWYSLAMAAS (beta-lactoglobulin peptide fragment) [SEQ ID NO: 9] | not able to induce proliferation | recognized | 
2 | LIVTQTMKGLDIQKVAGTWYSLAMAASDISLL (beta-lactoglobulin peptide fragment) [SEQ ID NO: 11] | did | not able to induce a proliferative response | 
3 | TMKGLDIQKVAGTWYSLAMAASDISLLDAQ (beta-lactoglobulin peptide fragment) [SEQ ID NO: 4] |  |  | reactivity of every cell line was covered
